Measurements published in patent publication US9174992B2, “Heterobicyclic compounds” (Amgen Inc., priority 2012, dated 2015).
Structures can show the parent of a compound that is named as a salt.

Target: PDE10A (UniProt Q9Y233)
Assay: PDE10 enzyme inhibition, IMAP TR-FRET assay (Example A, MPDE10A7 Enzyme Activity and Inhibition)
Type: biochemical
Details: approximate IC50 value, Table 10
Method in brief: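 Compounds were preincubated 60 min at room temperature with PDE10A enzyme or tissue homogenate, then fluorescein-labeled cAMP or cGMP was added for 90 min. After stopping with IMAP binding reagents, TR-FRET was read and IC50s were fitted with a four-parameter logistic equation.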

Structure (SMILES): N#CC1(NC(=O)c2cnc(N[C@H]3C[C@H](n4c(=O)n(C5CC5)c5nccnc54)C3)s2)CC1 [Example 151, N-(1-cyanocyclopropyl)-2-((trans-3-(3-cyclopropyl-2-oxo-2,3-dihydro-1H-imidazo[4,5-b]pyrazin-1-yl)cyclobutyl)amino)thiazole-5-carboxamide]
- IC50: 2490 nM

Structure (SMILES): O=C(c1cnc(N[C@H]2C[C@H](n3c(=O)n(C4CC4)c4nccnc43)C2)s1)N1CCOCC1 [Example 152, 1-cyclopropyl-3-(trans-3-((5-(morpholine-4-carbonyl)thiazol-2-yl)amino)cyclobutyl)-1H-imidazo[4,5-b]pyrazin-2(3H)-one]
- IC50: 9040 nM

Structure (SMILES): Cn1c(=O)n([C@H]2C[C@H](Nc3nc4ccc(F)cc4s3)C2)c2ncccc21 [Example 153, 3-(trans-3-((6-fluorobenzo[d]thiazol-2-yl)amino)cyclobutyl)-1-methyl-1H-imidazo[4,5-b]pyridin-2(3H)-one]
- IC50: 0.255 nM

Structure (SMILES): CC1(C)C(=O)N([C@H]2C[C@H](Nc3nc4cc(F)ccc4s3)C2)c2nccnc21 [Example 154, 5-(trans-3-((5-fluorobenzo[d]thiazol-2-yl)amino)cyclobutyl)-7,7-dimethyl-5H-pyrrolo[2,3-b]pyrazin-6(7H)-one]
- IC50: 0.136 nM

Structure (SMILES): Cn1c(=O)n([C@H]2C[C@H](Nc3nc4ccccc4s3)C2)c2ccccc21 [Example 155, 1-(trans-3-(benzo[d]thiazol-2-ylamino)cyclobutyl)-3-methyl-1H-benzo[d]imidazol-2(3H)-one]
- IC50: 1.67 nM

Structure (SMILES): CSc1ncc2c(n1)N([C@H]1C[C@H](Nc3nc4ccc(F)cc4s3)C1)C(=O)C2(C)C [Example 156, 7-(trans-3-((6-fluorobenzo[d]thiazol-2-yl)amino)cyclobutyl)-5,5-dimethyl-2-(methylthio)-5H-pyrrolo[2,3-d]pyrimidin-6(7H)-one]
- IC50: 9.08 nM

Structure (SMILES): CC1(C)C(=O)N([C@H]2C[C@H](Nc3nc4ccc(F)cc4s3)C2)c2ncncc21 [Example 157, 7-(trans-3-((6-fluorobenzo[d]thiazol-2-yl)amino)cyclobutyl)-5,5-dimethyl-5H-pyrrolo[2,3-d]pyrimidin-6(7H)-one]
- IC50: 4.45 nM

Structure (SMILES): CC1(C)C(=O)N([C@H]2C[C@H](Nc3ccc(Br)cn3)C2)c2nccnc21 [Example 158, 5-(trans-3-((5-bromopyridin-2-yl)amino)cyclobuty1)-7,7-dimethyl-5H-pyrrolo[2,3-b]pyrazin-6(7 H)-one]
- IC50: 0.189 nM

Structure (SMILES): COc1cnc(N[C@H]2C[C@H](N3C(=O)C(C)(C)c4nccnc43)C2)cn1 [Example 159, 5-(trans-3-((5-methoxypyrazin-2-yl)amino)cyclobulyl)-7,7-dimethyl-5H-pyrrolo[2,3-b]pyrazin-6(7 H)-one]
- IC50: 2.73 nM

Structure (SMILES): CC1(C)C(=O)N([C@H]2C[C@H](Nc3ccc(Br)cn3)C2)c2nccnc21 [Example 160, 5-(trans-3-((5-bromopyridin-2-yl)amino)cyclobutyl)-7,7-dimethyl-5H-pyrrolo[2,3-b]pyrazin-6(7H)-one]
- IC50: 90.5 nM

Structure (SMILES): Cn1c(N[C@H]2C[C@H](N3C(=O)C(C)(C)c4nccnc43)C2)nc2ccccc21 [Example 161, 7,7-dimethyl-5-(trans-3-((1-methyl-1H-benzo[d]imidazol-2-yl)amino)cyclobutyl)-5H-pyrrolo-[2,3-b]pyrazin-6(7 H)-one]
- IC50: 2.73 nM

Structure (SMILES): CC1(C)C(=O)N([C@H]2C[C@H](Nc3ccc4cccnc4n3)C2)c2nccnc21 [Example 162, 5-(trans-3-((1,8-naphthyridin-2-yl)amino)cyclobutyl)-7,7-dimethyl-5H-pyrrolo[2,3-b]pyrazin-6(7H)-one]
- IC50: 6.77 nM

Structure (SMILES): CC1(C)C(=O)N([C@H]2C[C@H](Nc3ccc4ncccc4n3)C2)c2nccnc21 [Example 163, 5-(trans-3-((1,5-naphthyridin-2-yl)amino)cyclobutyl)-7,7-dimethyl-5H-pyrrolo[2,3-b]pyrazin-6(7 H)-one]
- IC50: 0.459 nM

Structure (SMILES): CC1(C)C(=O)N([C@H]2C[C@H](Nc3ccc(-n4cccn4)cn3)C2)c2nccnc21 [Example 164, 5-(trans-3-((5-(1H-pyrazol-1-yl)pyridin-2-yl)amino)cyclobutyl)-7,7-dimethyl-5H-pyrrolo[2,3-b]pyrazin-6(7 H)-one triacetate]
- IC50: 0.921 nM

Structure (SMILES): c1cnc2c(c1)ccn2[C@H]1C[C@H](Nc2nc3ccccc3s2)C1 [Example 165, N-(trans-3-(1H-pyrrolo[2,3-b]pyridin-1-yl)cyclobutyl)benzo[d]thiazol-2-amine]
- IC50: 38.5 nM

Structure (SMILES): CC1(C)C(=O)N([C@H]2C[C@H](Nc3ncc4ccccc4n3)C2)c2ncccc21 [Example 166, 3,3-dimethyl-1-(trans-3-(quinazolin-2-ylamino)cyclobutyl)-1H-pyrrolo[2,3-b]pyridin-2(38)-one]
- IC50: 1120 nM

Structure (SMILES): CC1(C)C(=O)N([C@H]2C[C@H](Nc3ccc(OC(F)F)cn3)C2)c2nccnc21 [Example 167, 5-(trans-3-((5-(difluoromethoxy)pyridin-2-yl)amino)cyclobutyl)-7,7-dimethyl-5H-pyrrolo[2,3-b]pyrazin-6(7H)-one(trifluoroacetic acid salt)]
- IC50: 98.4 nM

Structure (SMILES): CC1(C)C(=O)N([C@H]2C[C@H](Nc3nc4ccccc4o3)C2)c2ncccc21 [Example 168, 1-(trans-3-(benzo[d]oxazol-2-ylamino)cyclobutyl)-3,3-dimethyl-1H-pyrrolo[2,3-b]pyridin-2(3 H)-one]
- IC50: 0.116 nM

Structure (SMILES): CC1(C)C(=O)N([C@H]2C[C@H](Nc3nc4cc(F)c(F)cc4s3)C2)c2nccnc21 [Example 169, 5-(trans-3-((5,6-difluorobenzo[d]thiazole-2-yl)amino)cyclobutyl)7,7-dimethyl-5H-pyrrolo-[2,3-b]pyrazin-6(7 H)-one]
- IC50: 0.416 nM

Structure (SMILES): CC1(C)C(=O)N([C@H]2C[C@H](Nc3nc4c(F)cc(F)cc4s3)C2)c2nccnc21 [Example 170, 5-(trans-3-((4,6-difluorobenzo[d]thiazole-2-yl)amino)cyclobutyl)-7,7-dimethyl-5H-pyrrolo-[2,3-b]pyrazin-6(714)-one]
- IC50: 2.71 nM

Structure (SMILES): COc1ccc2nc(N[C@H]3C[C@H](N4C(=O)C(C)(C)c5nccnc54)C3)sc2c1 [Example 171, 5-(trans-3-((6-methoxybenzo[d]thiazole-2-yl)amino)cyclobutyl)-7,7-dimethyl-5H-pyrrolo[2,3-b]pyrazin-6(7 H)-one]
- IC50: 4.16 nM

Structure (SMILES): Cn1c(=O)n([C@H]2C[C@H](Nc3nc4cccnc4s3)C2)c2ncccc21 [Example 172, 1-methyl-3-(trans-3-(thiazolo[-5,4-b]pyridin-2-ylamino)cyclobutyl)-1H-imidazo[4,5-b]pyridin-2(3 H)-one]
- IC50: 2.15 nM

Structure (SMILES): CC1(C)C(=O)N([C@H]2C[C@H](Nc3nc4cccnc4s3)C2)c2nccnc21 [Example 173, 7,7-dimethyl-5-(trans-3-(thiazolo[5,4-b]pyridin-2-ylamino)cyclobutyl)-5H-pyrrolo[2,3-b]pyrazin-6(7H)-one]
- IC50: 1.49 nM

Structure (SMILES): O=c1n(C2CC2)c2nccnc2n1[C@H]1C[C@H](Nc2ncc3ccc(F)cc3n2)C1 [Example 174]
- IC50: 0.896 nM

Structure (SMILES): CC1(C)C(=O)N([C@H]2C[C@H](Nc3ncc4ccc(F)cc4n3)C2)c2nccnc21 [Example 175, 5-(trans-3-((7-fluoroquinazolin-2-yl)amino)cyclobutyl)-7,7-dimethyl-5H-pyrrolo[2,3-b]lpyrazin-6(7 H)-one]
- IC50: 18.4 nM

Structure (SMILES): O=c1n(C2CC2)c2nccnc2n1[C@H]1C[C@H](Nc2nc3ccc(F)cc3o2)C1 [Example 176, 1-cyclopropyl-3-(trans-3-((6-fluorobenzo[d]oxazol-2-yl)amino)cyclobutyl)-1H-imidazo[4,5-b]pyrazin-2(3 H)-one]
- IC50: 7.75 nM

Structure (SMILES): CC1(C)C(=O)N([C@H]2C[C@H](Nc3nc4ccc(F)cc4o3)C2)c2nccnc21 [Example 177, 5-(trans-3-((6fluorobenzo[d]oxazol-2-yl)amino)cyclobutyl)-7,7-dimethyl-5H-pyrrolo[2,3-b]pyrazin-6(7 H)-one]
- IC50: 2.82 nM

Structure (SMILES): O=c1n(C2CC2)c2nccnc2n1[C@H]1C[C@H](Nc2nc3cccnc3s2)C1 [Example 178, 1-cyclopropyl-3-(trans-3-(thiazolo[5,4-b]pyridin-2-ylamino)cyclobutyl)-1H-imidazo[4,5-b]pyrazin-2(3 H)-one]
- IC50: 2.22 nM

Structure (SMILES): CC1(C)C(=O)N([C@H]2C[C@H](Nc3ncc4ccccc4n3)C2)c2nccnc21 [Example 179, 7,7-dimethyl-5-(trans-3-(quinazolin-2-ylamino)cyclobutyl)-5H-pyrrolo[2,3-b]pyrazin-6(7 H)-one]
- IC50: 2.01 nM

Structure (SMILES): O=C1COc2cccnc2N1[C@H]1C[C@H](Nc2nc3ccccc3s2)C1 [Example 182, 4-(trans-3-(benzo[d]thiazol-2-ylamino)cyclobutyl)-2H-pyrido[3,2-b][1,4]oxazin-3(4H)-one]
- IC50: > 9750 nM

Structure (SMILES): O=c1n(C2CC2)c2cccnc2n1[C@H]1C[C@H](Nc2ncc3ccccc3n2)C1 [Example 184, 1-cyclopropyl-3-(trans-3-(quinazolin-2-ylamino)cyclobutyl)-1H-imidazo[4,5-b]pyridin-2(3H)-one]
- IC50: 34.7 nM

Structure (SMILES): O=c1n(C2CC2)c2cccnc2n1[C@H]1C[C@H](Nc2nc3cc(F)ccc3s2)C1 [Example 185, 1-cyclopropyl-3-(trans-3-((5-fluorobenzo[d]thiazol-2-yl)amino)cyclobutyl)-1H-imidazo[4,5-b]pyridin-2(3H)-one]
- IC50: 0.839 nM

Structure (SMILES): O=c1n(C2CC2)c2cccnc2n1[C@H]1C[C@H](Nc2nc3ccc(F)cc3s2)C1 [Example 186, 1-cyclopropyl-3-(trans-3-((6-fluorobenzo[d]thiazol-2-yl)amino)cyclobutyl)-1H-imidazo[4,5-b]pyridin-2(3H)-one]
- IC50: 0.669 nM

Structure (SMILES): CC1(C)C(=O)N(C2CC(Nc3ccc4ccccc4n3)C2)c2nccnc21 (centres unmarked) [Example 187, 7,7-dimethyl-5-(3-(quinolin-2-ylamino)cyclobutyl)-5H-pyrrolo[2,3-b]pyrazin-6(7 H)-one]
- IC50: 1.06 nM

Structure (SMILES): CC1(C)C(=O)N(C2CCN(c3ncc4ccccc4n3)CC2)c2ncccc21 [Example 188, 3,3-dimethyl-1-(1-(quinazolin-2-yl)piperidin-4-yl)-1H-pyrrolo[2,3-b]pyridin-2(3 H)-one]
- IC50: 0.127 nM
